System: 931267-113-T-J1-PDC KRAS spheroid with HUVEC/MSC, viability
Assay: Anticancer human tumor 931267-113-T-J1-PDC patient-derived colon adenocarcinoma cell line growth inhibition [KRAS2]
Conditions: for IC50: curve of first compound; for viability, T/C: stronger effect = lower value; active = viability on the fitted dose curve at most 10% of control; inactive = the rest
Summary of the method: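 Combination screen of spheroid viability in tumor-cell co-cultures with endothelial (HUVEC) and mesenchymal stem cell stroma. Each agent was tested in half-log dilutions, topping at clinical Cmax or at 10 microM without a known Cmax.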

[1] = second compound 0.1 µM, first compound 0.0316 µM
[2] = second compound 0.1 µM, first compound 0.1 µM
[3] = second compound 0.1 µM, first compound 0.316 µM
[4] = second compound 0.1 µM, first compound 1 µM
[5] = second compound 0.1 µM, first compound 3.16 µM
[6] = second compound 0.1 µM, first compound 10 µM
[7] = second compound 0.316 µM, first compound 0.0316 µM
[8] = second compound 0.316 µM, first compound 0.1 µM
[9] = second compound 0.316 µM, first compound 0.316 µM
[10] = second compound 0.316 µM, first compound 1 µM
[11] = second compound 0.316 µM, first compound 3.16 µM
[12] = second compound 0.316 µM, first compound 10 µM
[13] = second compound 1 µM, first compound 0.0316 µM
[14] = second compound 1 µM, first compound 0.1 µM
[15] = second compound 1 µM, first compound 0.316 µM
[16] = second compound 1 µM, first compound 1 µM
[17] = second compound 1 µM, first compound 3.16 µM
[18] = second compound 1 µM, first compound 10 µM
[19] = second compound 3.16 µM, first compound 0.0316 µM
[20] = second compound 3.16 µM, first compound 0.1 µM
[21] = second compound 3.16 µM, first compound 0.316 µM
[22] = second compound 3.16 µM, first compound 1 µM
[23] = second compound 3.16 µM, first compound 3.16 µM
[24] = second compound 3.16 µM, first compound 10 µM
[25] = second compound 10 µM, first compound 0.0316 µM
[26] = second compound 10 µM, first compound 0.1 µM
[27] = second compound 10 µM, first compound 0.316 µM
[28] = second compound 10 µM, first compound 1 µM
[29] = second compound 10 µM, first compound 3.16 µM
[30] = second compound 10 µM, first compound 10 µM
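Note: compound exposure lasted 7 days before the readout.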
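Throughout, for viability, T/C: 100% = DMSO vehicle control viability.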

COc1cc(Nc2ncc3c(n2)-c2ccc(Cl)cc2C(c2c(F)cccc2OC)=NC3)ccc1C(=O)O + CNCc1ccccc1-c1csc(C(C)Nc2nc(C)nc3cc(OC)c(OC)cc23)c1
> 10000 nM: IC50 (second compound 0.1 µM) | IC50 (second compound 0.316 µM)
< 31.6 nM: IC50 (second compound 1 µM) | IC50 (second compound 3.16 µM) | IC50 (second compound 10 µM)
active: viability, T/C [19] 0.23% | viability, T/C [20] 0.31% | viability, T/C [21] 0.33% | viability, T/C [22] 0.21% | viability, T/C [23] 0.2% | viability, T/C [24] 0.35% | viability, T/C [25] 0.26% | viability, T/C [26] 0.16% | viability, T/C [27] 0.23% | viability, T/C [28] 0.16% | viability, T/C [29] 0.16% | viability, T/C [30] 0.31%
inactive: viability, T/C [1] 78.9% | viability, T/C [2] 87% | viability, T/C [3] 85.5% | viability, T/C [4] 72.3% | viability, T/C [5] 87.4% | viability, T/C [6] 62.1% | viability, T/C [7] 122% | viability, T/C [8] 106% | viability, T/C [9] 154% | viability, T/C [10] 86.6% | viability, T/C [11] 77.5% | viability, T/C [12] 64.2% | viability, T/C [13] 18.7% | viability, T/C [14] 36.5% | viability, T/C [15] 18.4% | viability, T/C [16] 26% | viability, T/C [17] 25.9% | viability, T/C [18] 25.6%

COc1cc2nccc(Oc3ccc(NC(=O)C4(C(=O)Nc5ccc(F)cc5)CC4)cc3)c2cc1OC + CNCc1ccccc1-c1csc(C(C)Nc2nc(C)nc3cc(OC)c(OC)cc23)c1
active: viability, T/C [17] 0.22% | viability, T/C [18] 1.76% | viability, T/C [19] 0.08% | viability, T/C [20] 0.19% | viability, T/C [21] 0.35% | viability, T/C [22] 0.07% | viability, T/C [23] 0.04% | viability, T/C [24] 0.2% | viability, T/C [25] 0.14% | viability, T/C [26] 0.17% | viability, T/C [27] 0.13% | viability, T/C [28] 0.12% | viability, T/C [29] 0.13% | viability, T/C [30] 0.21%
inactive: viability, T/C [1] 86.3% | viability, T/C [2] 93.1% | viability, T/C [3] 107% | viability, T/C [4] 91% | viability, T/C [5] 50.1% | viability, T/C [6] 48.1% | viability, T/C [7] 85.5% | viability, T/C [8] 86.8% | viability, T/C [9] 81.9% | viability, T/C [10] 72.3% | viability, T/C [11] 27.2% | viability, T/C [12] 21.9% | viability, T/C [13] 45.3% | viability, T/C [14] 52.9% | viability, T/C [15] 39.5% | viability, T/C [16] 25.4%
3210 nM: IC50 (second compound 0.1 µM)
< 31.6 nM: IC50 (second compound 1 µM) | IC50 (second compound 3.16 µM) | IC50 (second compound 10 µM)
1770 nM: IC50 (second compound 0.316 µM)

O=C(c1cc(Cc2n[nH]c(=O)c3ccccc23)ccc1F)N1CCN(C(=O)C2CC2)CC1 + CNCc1ccccc1-c1csc(C(C)Nc2nc(C)nc3cc(OC)c(OC)cc23)c1
< 31.6 nM: IC50 (second compound 3.16 µM) | IC50 (second compound 10 µM)
active: viability, T/C [19] 0.55% | viability, T/C [20] 0.34% | viability, T/C [21] 0.4% | viability, T/C [22] 0.47% | viability, T/C [23] 0.43% | viability, T/C [24] 0.38% | viability, T/C [25] 0.16% | viability, T/C [26] 0.2% | viability, T/C [27] 0.21% | viability, T/C [28] 0.61% | viability, T/C [29] 0.27% | viability, T/C [30] 0.23%
> 10000 nM: IC50 (second compound 0.1 µM) | IC50 (second compound 0.316 µM) | IC50 (second compound 1 µM)
inactive: viability, T/C [1] 98.8% | viability, T/C [2] 100% | viability, T/C [3] 86.8% | viability, T/C [4] 85.9% | viability, T/C [5] 61.9% | viability, T/C [6] 72.2% | viability, T/C [7] 106% | viability, T/C [8] 88.5% | viability, T/C [9] 98% | viability, T/C [10] 88.5% | viability, T/C [11] 82.7% | viability, T/C [12] 80% | viability, T/C [13] 114% | viability, T/C [14] 113% | viability, T/C [15] 108% | viability, T/C [16] 96.6% | viability, T/C [17] 112% | viability, T/C [18] 75.6%

— PubChem BioAssay AID1963863 (Molecular Pharmacology Branch, DTP, NCI, 2024)
